Laboratory results reported in US6552072B2, “Use of metal complexes to treat gastrointestinal infections” (Pfylori Limited, priority 1996, dated 2003).

Test system: H. pylori
Test: In vitro minimum inhibitor concentrations (MICs) of metal-ligand complexes against H. pylori
Format: cell-based
Conditions: Example 1
From the text: In Vitro Minimum Inhibitor Concentrations (MICs) Using Metal-ligand Complexes
Study of MICs of Other Metal-ligands Against H. pylori

Compound | MIC (Helicobacter pylori) [µg/mL] | MIC against H. pylori
O=C(O)CC(O)(CC(=O)O)C(=O)O [Citrate] | > 0.064 | –
[O-][n+]1ccccc1[S-].[O-][n+]1ccccc1[S-].[Zn+2] [Zinc Salt] | – | >>64 μg/l
O=C([O-])CC(O)(CC(=O)[O-])C(=O)[O-].O=C([O-])CC(O)(CC(=O)[O-])C(=O)[O-].[Zn+2].[Zn+2].[Zn+2] [Zinc Citrate, Zinc citrate] | – | 8 to 64 µg/L
